Test results taken from the supplement of paper PMC10307832.

Key:
Experiment in all cases: relative viability (nuclei count vs DMSO), 5 days (fraction); higher = more cells survive
GSK-J4 + Navitoclax = compound: CCOC(=O)CCNc1cc(N2CCc3ccccc3CC2)nc(-c2ccccn2)n1 [GSK-J4] + CC1(C)CCC(c2ccc(Cl)cc2)=C(CN2CCN(c3ccc(C(=O)NS(=O)(=O)c4ccc(N[C@H](CCN5CCOCC5)CSc5ccccc5)c(S(=O)(=O)C(F)(F)F)c4)cc3)CC2)C1 [Navitoclax] (partner 0.5 µM)
How it was run: (§1)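 Dosing by pin tool came one day after lung cancer cell lines were seeded in 1536-well plates, using either one drug or a fixed anchor-drug dose plus five library-drug doses (not always all listed) in √10 steps. After 5 days, nuclei were counted on 4× images. Relative viability is treated-well nuclei count divided by vehicle-well nuclei count, and values are medians of duplicate plates.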

GSK-J4 + Phenformin = compound: CCOC(=O)CCNc1cc(N2CCc3ccccc3CC2)nc(-c2ccccn2)n1 [GSK-J4] + N=C(N)NC(=N)NCCc1ccccc1 [Phenformin] (partner 250 µM)
How it was run: as §1

AZ3146 + Luminespib = compound: CN1CCC(CC1)OC2=CC(=C(C=C2)NC3=NC=C4C(=N3)N(C(=O)N4C)C5CCCC5)OC [AZ3146] + CCNC(=O)c1noc(-c2cc(C(C)C)c(O)cc2O)c1-c1ccc(CN2CCOCC2)cc1 [Luminespib] (partner 0.01 µM)
How it was run: as §1

AZ3146 + Alpelisib = compound: CN1CCC(CC1)OC2=CC(=C(C=C2)NC3=NC=C4C(=N3)N(C(=O)N4C)C5CCCC5)OC [AZ3146] + Cc1nc(NC(=O)N2CCC[C@H]2C(N)=O)sc1-c1ccnc(C(C)(C)C(F)(F)F)c1 [Alpelisib] (partner 2 µM)
How it was run: as §1

| Cell Line | relative viability (GSK-J4 + Navitoclax; first compound 0.5 µM) | relative viability (GSK-J4 + Navitoclax; first compound 1.581 µM) | relative viability (GSK-J4 + Navitoclax; first compound 5 µM) | relative viability (GSK-J4 + Navitoclax; first compound 15.81 µM) | relative viability (GSK-J4 + Navitoclax; first compound 50 µM) | relative viability (GSK-J4 + Phenformin; first compound 0.5 µM) | relative viability (GSK-J4 + Phenformin; first compound 1.581 µM) | relative viability (GSK-J4 + Phenformin; first compound 5 µM) | relative viability (GSK-J4 + Phenformin; first compound 15.81 µM) | relative viability (GSK-J4 + Phenformin; first compound 50 µM) | relative viability (AZ3146 + Luminespib; first compound 0.08 µM) | relative viability (AZ3146 + Luminespib; first compound 0.253 µM) | relative viability (AZ3146 + Luminespib; first compound 0.8 µM) | relative viability (AZ3146 + Luminespib; first compound 2.53 µM) | relative viability (AZ3146 + Luminespib; first compound 8 µM) | relative viability (AZ3146 + Alpelisib; first compound 0.08 µM) | relative viability (AZ3146 + Alpelisib; first compound 0.253 µM) | relative viability (AZ3146 + Alpelisib; first compound 0.8 µM) | relative viability (AZ3146 + Alpelisib; first compound 2.53 µM) | relative viability (AZ3146 + Alpelisib; first compound 8 µM) |
| --- | --- | --- | --- | --- | --- | --- | --- | --- | --- | --- | --- | --- | --- | --- | --- | --- | --- | --- | --- | --- |
| LXF-289 | 0.864 | 0.838 | 0.955 | 0.933 | 0.867 | 0.506 | 0.445 | 0.408 | 0.53 | 0.515 | 0.643 | 0.691 | 0.705 | 0.772 | 0.787 | 1.02 | 1 | 0.96 | 1.06 | 0.946 |
| NCI-H23 | 0.856 |  | 0.886 | 0.893 | 0.867 | 0.71 | 0.723 | 0.627 | 0.648 | 0.671 | 0.218 | 0.21 | 0.241 | 0.223 | 0.226 | 0.591 | 0.668 | 0.676 | 0.744 | 0.738 |
| NCI-H322M | 1.18 | 1.18 | 1.29 | 1.05 | 1.17 | 0.788 | 0.553 | 0.806 | 0.729 | 0.545 | 0.88 | 0.847 | 0.715 | 0.924 | 0.787 | 0.759 | 0.83 | 0.699 | 0.807 | 0.785 |
| NCI-H441 | 0.818 | 0.362 | 0.508 | 0.667 | 0.535 | 0.819 | 0.852 | 0.641 | 0.805 | 0.809 | 0.274 | 0.465 | 0.353 | 0.38 | 0.473 | 0.58 | 0.719 | 0.675 | 0.787 | 0.647 |
| NCI-H460 | 1.02 | 0.984 | 1.09 | 1.22 | 0.994 | 0.515 | 0.365 | 0.361 | 0.472 | 0.398 | 0.0349 | 0.0347 | 0.0408 | 0.0305 | 0.0293 | 0.375 | 0.466 | 0.478 | 0.573 | 0.254 |
| NCI-H520 | 1.07 | 0.957 | 1.21 | 0.694 | 1.06 | 0.582 | 0.478 | 0.46 | 0.303 | 0.445 | 0.243 | 0.214 | 0.223 | 0.255 | 0.248 | 0.689 | 0.943 | 0.791 | 0.834 | 1.04 |
| NCI-H596 | 1.02 | 0.955 | 1.1 | 0.846 | 0.977 | 0.821 | 0.67 | 0.626 | 0.633 | 0.732 | 1.01 | 0.995 | 0.831 | 1.03 | 0.837 | 0.482 | 0.484 | 0.489 | 0.487 | 0.428 |
| NCI-H647 | 1.02 | 0.737 | 0.981 | 1.06 | 1.09 | 0.618 | 0.398 | 0.415 | 0.498 | 0.532 | 0.186 | 0.178 | 0.244 | 0.149 | 0.269 | 1.05 | 1.21 | 1.27 | 1.28 | 0.534 |
| NCI-H727 | 0.394 |  | 0.648 | 0.404 | 0.208 | 0.566 | 0.76 | 0.791 | 0.589 | 0.441 | 0.465 | 0.796 | 0.458 | 0.34 | 0.302 | 0.506 | 0.457 | 0.48 | 0.612 | 0.333 |
| NCI-H838 | 1.13 | 1.07 |  | 1.08 | 1.14 | 0.798 | 0.465 |  | 0.528 | 0.487 | 0.31 | 0.284 | 0.281 | 0.273 | 0.264 | 0.95 | 1.06 | 0.883 | 0.985 | 0.858 |
| NCI-H1355 | 0.913 | 0.793 | 1.18 | 0.815 | 0.924 | 0.447 | 0.39 | 0.333 | 0.359 | 0.36 | 0.744 | 0.721 | 0.724 | 0.767 | 0.766 | 0.836 | 0.849 | 0.897 | 0.723 | 0.809 |
| NCI-H1395 | 1.31 | 1.08 | 0.896 | 1.05 | 0.898 | 0.418 | 0.459 | 0.372 | 0.421 | 0.443 | 0.72 | 0.691 | 0.634 | 0.772 | 0.719 | 1.08 | 1.18 | 0.998 | 0.994 | 1.26 |
| NCI-H1437 | 1.03 | 1.03 | 1.03 | 1.08 | 0.319 | 0.319 | 0.263 | 0.308 | 0.371 | 0.25 | 1.12 | 1.15 | 1.11 | 1.15 | 1.07 | 0.954 | 1.05 | 0.876 | 0.96 | 0.911 |
| NCI-H1651 | 0.999 | 0.942 | 1.03 | 1.05 | 0.958 | 0.294 | 0.308 | 0.348 | 0.384 | 0.392 | 0.966 | 0.881 | 0.984 | 0.761 | 0.779 | 0.879 | 1.02 | 0.936 | 1.1 | 0.958 |
| NCI-H1666 | 1.08 |  | 1.19 | 0.918 | 0.472 | 0.512 | 0.515 | 0.605 | 0.486 | 0.464 | 1.08 | 1.04 | 1 | 1.04 | 0.763 | 0.739 | 0.848 | 0.962 | 0.956 | 0.841 |
| NCI-H1734 | 0.83 | 0.736 | 0.694 | 0.734 | 0.632 | 0.425 | 0.365 | 0.328 | 0.332 | 0.31 | 0.181 | 0.198 | 0.689 | 0.198 | 0.2 | 0.731 | 0.62 | 0.731 | 0.649 | 0.696 |
